For five compounds, zone of inhibition results are on record in ChEMBL document CHEMBL1159222, “Varacin and three new marine antimicrobial polysulfides from the far-eastern ascidian Polycitor sp” (1995).

What all share (format): functional
Settings in all cases: read-out: IZ

In test [1] the test system is Candida albicans. Briefly: Antifungal activity against Candida albicans at 10 ug.
The subject of test [2] is Candida albicans. Briefly: Antifungal activity against Candida albicans at 0.1 ug.
The subject of test [3] is Bacillus subtilis. Nature of the test: Antibacterial activity against Bacillus subtilis at 0.1 ug.
For test [4], the system named is Bacillus subtilis. Nature of the test: Antibacterial activity against Bacillus subtilis at 1 ug.

With `COc1cc(CCNC(C)=O)c2c(c1OC)SSS2` [VARACIN A ACETATE], in test [1], the zone of inhibition at 10 µg/disc amounted to 20 mm.

For `COc1cc(CCNC(C)=O)c2c(c1OC)SSSSS2` [VARACIN ACETATE], the zone of inhibition at 10 µg/disc in test [1] worked out at 20 mm.

For the compound `COc1cc(CCNC(C)=O)c2c(c1OC)[S+]([O-])SS2` (configuration not stated) [VARACIN B ACETATE], the zone of inhibition at 10 µg/disc in test [1] stood at 20 mm.

Regarding `COc1cc(CCNC(C)=O)c2c(c1OC)SS[S+]2[O-]` (configuration not stated) [VARACIN C ACETATE], the zone of inhibition at 10 µg/disc in test [1] was 20 mm.

Regarding `COc1cc(CCN)c2c(c1OC)SSSSS2` [VARACIN], the zone of inhibition at 0.1 µg/disc in test [2] and in test [3] was 20 mm in each case. Further, the zone of inhibition at 1 µg/disc in test [4] was 20 mm.
